Data taken from the NIST ThermoML archive (doi:10.1021/je400054m).
± gives the expanded uncertainty stated by the source.

How the values were obtained:
[1] = DTA
[2] = Molar enthalpy of transition or fusion; conditions: DSC

Normal melting temperature ([1]; Crystal)	Molar enthalpy of transition or fusion ([2]; Crystal)	Triple point temperature ([1]; Crystal 2)	Molar enthalpy of transition or fusion ([2]; Crystal 2)	Normal melting temperature ([1]; Crystal 1)	Triple point temperature ([1]; Crystal 3)	Molar enthalpy of transition or fusion ([2]; Crystal 1)	Molar enthalpy of transition or fusion ([2]; Crystal 3)	SMILES
283.10 ± 0.7 °C	12 ± 0.78 kJ/mol							CC(=O)[O-].[Li+] [lithium acetate]
316.80 ± 0.7 °C	20.8 ± 1.3 kJ/mol							CCCC(=O)[O-].[Li+] [lithium butanoate]
		309.65 ± 0.7 K	0.463 ± 0.12 kJ/mol					CCCCCCCCCC(=O)[O-].[Li+] [lithium decanoate]
		346.05 ± 0.7 K	6.95 ± 0.47 kJ/mol	227.40 ± 0.7 °C	314.45 ± 0.7 K	28.4 ± 1.8 kJ/mol	0.578 ± 0.14 kJ/mol	CCCCCCCCCCCC(=O)[O-].[Li+] [lithium dodecanoate]
		316.55 ± 0.7 K	6.23 ± 0.42 kJ/mol	274.40 ± 0.7 °C		24.8 ± 1.6 kJ/mol		CCCCCCC(=O)[O-].[Li+] [lithium heptanoate]
287.20 ± 0.7 °C	23 ± 1.5 kJ/mol							CCCCCC(=O)[O-].[Li+] [lithium hexanoate]
		508.55 ± 0.7 K	1.89 ± 0.18 kJ/mol	272.20 ± 0.7 °C		16.1 ± 1 kJ/mol		O=C[O-].[Li+] [lithium methanoate]
		348.95 ± 0.7 K	8.03 ± 0.54 kJ/mol	251.10 ± 0.7 °C		25.6 ± 1.6 kJ/mol		CCCCCCCCC(=O)[O-].[Li+] [lithium nonanoate]
264.30 ± 0.7 °C	24 ± 1.5 kJ/mol							CCCCCCCC(=O)[O-].[Li+] [lithium octanoate]
		323.45 ± 0.7 K	3.94 ± 0.29 kJ/mol	301.10 ± 0.7 °C		22 ± 1.4 kJ/mol		CCCCC(=O)[O-].[Li+] [lithium pentanoate]
		364.55 ± 0.7 K	13.8 ± 0.88 kJ/mol	235.50 ± 0.7 °C		28.3 ± 1.8 kJ/mol		CCCCCCCCCCC(=O)[O-].[Li+] [lithium undecanoate]
		530.55 ± 0.7 K	3.42 ± 0.27 kJ/mol	331.00 ± 0.7 °C		16 ± 1 kJ/mol		CCC(=O)[O-].[Li+] [propionic acid, lithium salt]
